According to US4722922A, “Tetrapeptide amides in the treatment of hypertension” (priority 1985, dated 1988):
Counter-ions that a name gives are not always drawn. Non-standard residues stand in square brackets, D forms with d. Residues, ends and D or L forms follow the SMILES beside them. No end group written: not given here. *: point of attachment. dTyr(3-tBu) = CC(C)(C)c1cc(C[C@@H](N)C(=O)O)ccc1O; Tyr(3-tBu) = CC(C)(C)c1cc(C[C@H](N)C(=O)O)ccc1O; dMet(O2) = CS(=O)(=O)CC[C@@H](N)C(=O)O; Sta = CC(C)C[C@H](N)[C@@H](O)CC(=O)O; Isovaleryl = CC(C)CC(=O)*; Ahx = NCCCCCC(=O)O

Columns and labels:
human renin = molecular target: T1, human renin (Homo sapiens, UniProt P00797); assay: Inhibition of Human Renin (angiotensin I formation, radioimmunoassay); type: biochemical; settings: for % Inhibition: human renin test, 0.1 mGU/ml human renin, human plasma, two-hour incubation at 37° C., pH 7.5, test compound concentration not given
T1 construct: human renin, isolated from kidneys, was obtained from the World Health Organization International Laboratory for Biological Standards; tissue World Health Organization International Laboratory for Biological Standards (National Institute for Biological Standards and Control, London, England); host or cells: human kidney
T1 sequence (P00797 67-406): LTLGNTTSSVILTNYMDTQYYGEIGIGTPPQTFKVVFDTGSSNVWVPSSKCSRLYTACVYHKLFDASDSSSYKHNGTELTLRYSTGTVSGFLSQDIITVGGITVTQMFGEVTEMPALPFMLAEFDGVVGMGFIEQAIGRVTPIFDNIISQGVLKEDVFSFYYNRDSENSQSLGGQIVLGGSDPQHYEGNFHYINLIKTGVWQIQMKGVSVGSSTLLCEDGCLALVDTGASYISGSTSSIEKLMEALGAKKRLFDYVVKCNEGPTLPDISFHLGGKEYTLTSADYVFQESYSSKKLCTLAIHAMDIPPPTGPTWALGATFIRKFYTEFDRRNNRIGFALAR
Protocol: The renin inhibition activity of the compounds of this invention illustrated in the examples was tested by the following method.
Inhibition of Human Renin
International reference standard human renin, isolated from kidneys, was obtained from the World Health Organization International Laboratory for Biological Standards (National Institute for Biological Standards and Control, London, England). Renin activity is defined in "Goldblatt units" (GU), the quantity that, when injected directly into the blood stream of an unanesthetized dog, raises the direct mean femoral artery blood pressure by 30 mm Hg in about two minutes. E. Haas, L. Lewis, P. Scipione, and T. J. Koshy, Hypertension, 1, 112-117 (1979). Human angiotensinogen was used as an unisolated component of human blood plasma. The enzyme inhibition assay, see K. Poulsen, J. Burton, and E. Haber, Biochemistry, 12, 3877-3882 (1973), involved a two-hour incubation at 37° C. of the following final concentrations of reagents (0.25 ml total volume): 0.1 mGU/ml human renin; 0.05 ml human plasma; 6 mM disodium EDTA; 2.4 mM phenylmethylsulfonyl fluoride and 1.5 mM 8-hydroxyquinoline (angiotensinase inhibitors); 0.4 mg/ml bovine serum albumin; and 0.024 neomycin sulfate in 100 mM Tris-acetate buffer (pH 7.5). The enzymatic reaction was terminated by boiling the mixture for ten minutes. The quantity of angiotensin I formed was determined by radioimmunoassay, using the general method used in the angiotensin I radioimmunoassay kit of New England Nuclear.

[1] = tested on: renal-ligated hypertensive rat; assay: Renal-ligated Hypertensive Rat Assay; type: in vivo, Sprague Dawley rats; settings: renal-ligated rats
Protocol: Renal-ligated Hypertensive Rat Assay
Male Sprague Dawley rats aged 11 to 15 weeks old were used in this test. […] Test compounds were administered intra-arterially at a dose of 10 mg per kg of body weight, and blood pressure changes were monitored directly at 5, 10, and 15 minutes after injection.

| Compound | % Inhibition (human renin) [%] | other results |
| --- | --- | --- |
| 2,4-dimethyl-3-hydroxyphenylalanyl-D-methionylglycyl-N-(6-methoxy-6-oxohexyl)-L-phenylalaninamide monohydrochloride hemihydrate [Example 77] | 73 |  |
| COC(=O)CCCCCNC(=O)[C@H](Cc1ccccc1)NC(=O)CNC(=O)[C@@H](CCSC)NC(=O)[C@@H](N)Cc1ccc(OC(=O)OCC(C)C)c(C(C)(C)C)c1.Cl (racemic) [Example 69, O-(2-methylpropoxycarbonyl)-3-t-butyl-tyrosyl-D-methionylglycyl-N-(6-methoxy-6-oxohexyl)-L-phenylalaninamide monohydrochloride] | 43 |  |
| COC(=O)CCCCCNC(=O)[C@H](Cc1ccccc1)NC(=O)CNC(=O)[C@@H](CCS(C)(=O)=O)NC(=O)[C@@H](N)Cc1ccc(O)c(C(C)(C)C)c1 [Example 73, 3-t-butyl-L-tyrosyl-[4-(methylsulfonyl)-D-2-aminobutanoyl]glycyl-N-(6-methoxy-6-oxohexyl)-L-phenylalaninamide monohydrochloride hemihydrate] (H-[Tyr(3-tBu)][dMet(O2)]GF[Ahx]-OMe) | 21 |  |
| COC(=O)CCCCCNC(=O)[C@H](Cc1ccccc1)NC(=O)CNC(=O)[C@@H](CCS(C)(=O)=O)NC(=O)[C@H](N)Cc1ccc(O)c(C(C)(C)C)c1 [Example 74, 3-t-butyl-D-tyrosyl-[4-(methylsulfonyl)-D-2-aminobutanoyl]glycyl-N-(6-methoxy-6-oxohexyl)-L-phenylalaninamide monohydrochloride hemihydrate] (H-[dTyr(3-tBu)][dMet(O2)]GF[Ahx]-OMe) | 28 |  |
| CC(C)CC(=O)N[C@H](C(=O)N[C@H](C(=O)N[C@@H](CC(C)C)[C@@H](O)CC(=O)N[C@@H](C)C(=O)N[C@@H](CC(C)C)[C@@H](O)CC(=O)O)C(C)C)C(C)C [Pepstatin] (Isovaleryl-VV[Sta]A[Sta]-OH) |  | plasma renin activity ([1]; same test conditions): significantly reduced; mean arterial blood pressure ([1]; test compounds given intra-arterially, pressure read at 5, 10 and 15 minutes after injection): significantly reduced |
| O-(2-methylpropoxycarbonyl)-2,3,6-trimethyltyrosyl-[4-(methylsulfinyl)-D-2- aminobutanoyl]glycyl-N-(6-methoxy-6-oxohexyl)-L-phenylalaninamide monohydrochloride sesquihydrate [Example 58] | 26 |  |
| O-(2-methylpropoxycarbonyl)-2-methyltyrosyl-D-methionylglycyl-N-(6-methoxy- 6-oxohexyl)-L-phenylalaninamide monohydrochloride hemihydrate [Example 63] | 23 |  |
| O-(2-methylpropoxycarbonyl)-2-methyltyrosyl-[4-(methylsulfinyl)-D-2-aminobutanoyl]-glycyl-N-(6-methoxy-6-oxohexyl)-L-phenylalaninamide monohydrochloride hemihydrate [Example 64] | 22 |  |
| O-(2-methylpropoxycarbonyl)-3-t-butyltyrosyl-[4-(methylsulfinyl)-D-2-aminobutanoyl]glycyl-N-(6-methoxy-6-oxohexyl)-L-phenylalaninamide monohydrochloride hemihydrate [Example 70] | 25 |  |
| PHPFHLFVY [Pro-[Phe^6]octapeptide, prolylhistidylprolylphenylalanylhistidylleucylphenylalanylvalyltyrosine, reference compound] |  | activity in the human renin inhibition assay (human renin; stated in words): active |
